# In paper PMC4405350, “From Broad-Spectrum Biocides to Quorum Sensing Disruptors and Mussel Repellents: Antifouling Profile of Alkyl Triphenylphosphonium Salts” (PLoS ONE, 2015):
# How the values were obtained:
# [1] = tested on: Mytilus galloprovincialis; assay: Mussel foot retraction assay; type: in vivo; settings: for Mussels showing foot retraction: 200 μM, highest test concentration; for EC50: Mytilus galloprovincialis, dripped on the foot, read-out: Concentration required to cause foot repulsion in 50% of mussels
# Description: The mussel Mytilus galloprovincialis was used as target organism. Individuals of 4.0–4.5 cm shell length were collected at intertidal rocky shore of the outer Ría de Vigo (NW Spain). Animals were kept in running seawater aquarium tanks with open-flow design for few days and fed daily by pulses with a mixture of the microalgae (Tahitian Isochrysis aff. galbana) and sediment from the seafloor below the mussel rafts.
# Mussel foot retracting assay was conducted following the method reported by Hayashi and Miki. Briefly, subsamples of individuals from the maintenance tanks were transferred to containers filled with 1-μm FSW. After 30 min, the posterior adductor muscle (PAM) was cut to open both animal´s valves as shown in S1A Fig, and byssus filaments were removed from their insertion with the soft tissues. Animals were disposed individually on flexible innocuous plasticine basis as a holder still for 15 min in FSW. The latter disposition avoided animal´s manipulation before and after each test solution was dripped directly on the foot of immobilized animals. FSW was removed and animals exposed their internal cavities in dry conditions for the dripping actions but maintaining a humidity layer over soft tissues.
# Initially two different controls (negative and positive) were considered. As negative control, 2.5 μl of DMSO in 0.2-μm FSW was used. […] After the negative control test, the animals were disposed back in 1-μm FSW for 15 min. With regard to the positive control, 1000 ppm of CuSO4 was used. For the latter case, only animals that did react to such positive control were used. After this second control, animals were disposed back in 1-μm FSW, this time for 25 min in order to remove completely any rest of copper. All animals considered for the experiment have accomplished the two controls satisfactorily.
# Different concentrations (6.25, 12.5, 25, 50, 100 and 200 μM) of two test compounds, 3 and 16 were used. Stocks of 40 mM for the two compounds under investigation were prepared in DMSO. Posterior dilution actions to get the distinct concentrations desired were prepared with 0.2-μm FSW. Concentrations were tested in ascending order from 6.25 to 200 μM. Animals were kept in 0.2-μm FSW for 15 min at each time interval between sampling with the aim to wash the internal soft tissues. After each removal of seawater, animals were ready to use again.
# Eight series of ten animals each were considered for retracting muscle foot analysis and each test compound. Each potential foot-reacting substance was individually dripped on the foot of the mussels (S1B Fig) and the animal’s reactions were noted. […]
# [2] = Solubility in water (stock preparation); type: physicochemical; settings: for 40-mM stock
# Description: Indeed, the inhibitions observed in violacein production for long alkyl chains (10–18, 20) were clearly correlated to the biocidal effect exerted by these compounds, with ‘therapeutic ratios’ (IC50 for growth inhibition/IC50 for violacein inhibition) around 1, in general (Table 2). Note that, as the length of the hydrocarbon chain becomes shorter, this ratio increased (8–9). […] To evaluate these compounds in further detail, […] stock solutions were prepared […] to avoid the use of high concentrations of DMSO in the bioassays. […] Serial two-fold dilutions (500–3.9 μM) were assayed. Consequently, the highest amount of DMSO used in the assay was 0.25% (v/v). […] Growth inhibitory effects are only observed at 500 μM, particularly for compound 7 (Fig 6D).
# [3] = target: Mushroom tyrosinase (EC 1.14.18.1) (Agaricus bisporus, UniProt C7FF04); assay: Tyrosinase inhibition assay (L-Dopa, dopachrome at 475 nm); type: biochemical; settings: 15 and 30 μM inhibitor
# Mushroom tyrosinase (EC 1.14.18.1), sequence (G1K3P4 entry or part of it): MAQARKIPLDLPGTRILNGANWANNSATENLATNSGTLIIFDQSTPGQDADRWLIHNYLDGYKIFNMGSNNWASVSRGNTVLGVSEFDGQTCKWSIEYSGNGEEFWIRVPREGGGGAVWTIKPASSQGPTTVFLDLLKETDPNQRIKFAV
# Mushroom tyrosinase (EC 1.14.18.1), sequence (C7FF04 1-392): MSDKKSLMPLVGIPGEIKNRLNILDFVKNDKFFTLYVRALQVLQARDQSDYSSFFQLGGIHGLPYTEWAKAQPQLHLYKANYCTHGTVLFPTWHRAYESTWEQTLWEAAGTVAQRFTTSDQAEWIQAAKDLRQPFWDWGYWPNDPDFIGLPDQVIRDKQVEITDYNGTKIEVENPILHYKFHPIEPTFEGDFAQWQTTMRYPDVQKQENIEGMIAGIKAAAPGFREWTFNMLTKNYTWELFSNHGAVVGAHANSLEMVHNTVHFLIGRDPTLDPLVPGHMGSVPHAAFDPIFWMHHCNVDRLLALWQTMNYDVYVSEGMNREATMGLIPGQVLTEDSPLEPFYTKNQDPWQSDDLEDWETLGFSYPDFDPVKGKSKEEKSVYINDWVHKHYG
# Description: Tyrosinase inhibition assays were conducted as described in [52] with slight modifications. First, in order to characterize the Michaelis-Menten parameters of the enzyme kinetics, 100 μl of a mushroom tyrosinase solution (25 U) in sodium phosphate buffer (50 mM, pH 6.5) were pipetted in each well of a flat-bottom microtiter plate (Nunc 167008). Two-fold dilutions of L-Dopa, from 4.8 to 0.075 mM (final concentrations) were mixed (100 μl) with the enzyme solution. The enzymatic reaction was followed by measuring the absorbance at 475 nm every 30 s over 15 min, with shaking (150 rpm) between measurements. Temperature was kept constant at 30 °C. The values of KM and vmax under these conditions were obtained from Lineweaver-Burk plots. For tyrosinase inhibition assays, each well of the microtiter plate was filled with 100 μl of a mushroom tyrosinase solution and the appropriate amount of the test substance dissolved in DMSO. The compounds were pre-incubated with the enzyme at 30 °C for 10 min. Subsequently, the enzymatic reaction was triggered by addition of 100 μl of L-Dopa (1.2 mM test concentration). Formation of dopachrome was followed by measuring the absorbance at 475 nm as described above.
# [4] = set-up: method as in earlier work; settings: cited from earlier work
# [5] = tested on: Mushroom tyrosinase; assay: Tyrosinase fluorescence quenching (fluorescence spectroscopy); type: binding, Agaricus bisporus; settings: 280 nm excitation, 0–30 μM quencher
# Description: Fluorescence measurements of tyrosinase solutions were performed using an Edinburgh Instruments LifeSpec II fluorescence spectrometer, exciting the complexes at 280 nm with an Edinburgh Instruments EPLED-280 subnanosecond pulsed diode source (typically pulse width at half maximum around 860 ps, repetition rate 10 MHz) and using Edinburg Instruments F900 acquisition software. A multichannel plate photomultiplier was used as the detector using single photon counting technique. Lifetime estimation was made using instrument response function (IRF) reconvolution analysis with FAST software by Edinburgh Instruments, providing a temporal resolution around 0.2 ns. A blank medium without enzyme was used to confirm that the collected fluorescence comes from the enzyme molecules and any influence of the fluorescence of the quencher and buffer components on the enzyme fluorescence is negligible. […]
# Fluorescence of enzymes is very sensitive to conformational changes of the protein structure. The interaction of tyrosinase inhibitors can be evaluated by the analysis of the intrinsic tyrosinase fluorescence when tyrosinase and inhibitor (quencher) molecules are mixed in a solution. In particular, we have evaluated the effect of the tyrosinase inhibitor 16. Quenching of tyrosinase fluorescence is expected as a consequence of conformational alterations induced by the quencher. […]
smiles,measurement,setting,value
C/C=C/C[P+](c1ccccc1)(c1ccccc1)c1ccccc1 [Compound 3],Mussels showing foot retraction,[1],94–95%
same,EC50,[1],47 µM
CCCCC[P+](c1ccccc1)(c1ccccc1)c1ccccc1 [Compound 7],Solubility in water,[2],poor solubility in water
CCCCCCCCCCCCCCCC[P+](c1ccccc1)(c1ccccc1)c1ccccc1 [Compound 16],Type of tyrosinase inhibition (Lineweaver-Burk plots),[3],non-competitive inhibition
same,cmc threshold,[4],around 100 μM
same,Stern-Volmer quenching constant KSV,[5],about 4490 M^-1
same,Mussels showing foot retraction,[1],94–95%
same,EC50,[1],34 µM
